Measurements from PMC8565778, “Evaluation of health benefits of sea lamprey (Petromyzon marinus) isolates using in vitro antiinflammatory and antioxidant assays” (PLoS ONE, 2021).

Assays:
[1] = set-up: Fe2+-induced liposome lipid peroxidation; per cent inhibition measured as loss of fluorescent probe signal; settings: large unilamellar vesicles; LPO (lipid peroxidation of large unilamellar liposomes, Fe2+-initiated); 25 ug/mL; inhibitor
Procedure: Pure compounds and positive controls were assayed for LPO inhibitory activities according to published procedures from our laboratory (see S1 File for experimental details). The antioxidant assay, the lipid peroxidation inhibitory (LPO) assay, used in this study measures free radical scavenging capability of pure compounds and extracts. In this assay, peroxidation of the lipid was initiated by the addition of Fe^2+ resulting in the generation of radicals, which cause the peroxidation of LUV and in turn the fluorescent probes embedded in it. The loss of fluorescent intensity in the assay indicates the oxidative damage to the lipid component of the LUV [11–15, 21] (S1 File). At 25 μg/mL concentration, cholesteryl palmitate, cholesteryl oleate, cholesteryl eicosapentaenoate and cholesteryl arachidonate inhibited LPO by 38, 60, 72 and 82%, respectively (Table 2) (Fig S in S1 File). The most abundant steroidal compound in sea lamprey was cholesterol and it lacked LPO inhibitory activity. Antioxidant activity profiles of the cholesterol esters were like its antiinflammatory profiles. That is, an increase in chain length and unsaturation increased the LPO activity. Majority of the lipophilic fraction of the sea lamprey extract consisted of glycerides and free fatty acids.

[2] = target: T1, COX-2 (cyclooxygenase enzyme-2) (Homo sapiens, UniProt P35354); experiment: biochemical; set-up: In vitro cyclooxygenase (COX-1 and COX-2) enzyme inhibition assay, percent inhibition; settings: read-out: % inhibition
T1 construct: gene PTGS2
T1 sequence (P35354 18-604): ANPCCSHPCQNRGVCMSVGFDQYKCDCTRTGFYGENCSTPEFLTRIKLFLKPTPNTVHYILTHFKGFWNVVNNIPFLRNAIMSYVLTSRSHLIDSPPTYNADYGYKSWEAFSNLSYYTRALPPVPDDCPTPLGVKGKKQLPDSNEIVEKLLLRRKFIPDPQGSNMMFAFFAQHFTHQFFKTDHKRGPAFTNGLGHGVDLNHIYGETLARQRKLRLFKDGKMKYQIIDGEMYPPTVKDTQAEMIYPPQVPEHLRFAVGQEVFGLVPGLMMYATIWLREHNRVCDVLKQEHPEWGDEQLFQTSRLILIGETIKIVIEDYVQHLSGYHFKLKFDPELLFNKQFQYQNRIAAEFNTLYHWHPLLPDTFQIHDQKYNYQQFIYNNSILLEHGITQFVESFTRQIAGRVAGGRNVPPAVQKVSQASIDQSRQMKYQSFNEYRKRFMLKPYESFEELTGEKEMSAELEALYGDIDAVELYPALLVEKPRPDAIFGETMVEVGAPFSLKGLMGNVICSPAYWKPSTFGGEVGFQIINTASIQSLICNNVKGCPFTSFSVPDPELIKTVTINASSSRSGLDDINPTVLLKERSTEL

[3] = target: T2, COX-1 (cyclooxygenase enzyme-1) (Ovis aries, UniProt P05979); experiment: biochemical; set-up: In vitro cyclooxygenase (COX-1 and COX-2) enzyme inhibition assay, percent inhibition; settings: read-out: % inhibition
T2 construct: gene PTGS1
T2 sequence (P05979 25-600): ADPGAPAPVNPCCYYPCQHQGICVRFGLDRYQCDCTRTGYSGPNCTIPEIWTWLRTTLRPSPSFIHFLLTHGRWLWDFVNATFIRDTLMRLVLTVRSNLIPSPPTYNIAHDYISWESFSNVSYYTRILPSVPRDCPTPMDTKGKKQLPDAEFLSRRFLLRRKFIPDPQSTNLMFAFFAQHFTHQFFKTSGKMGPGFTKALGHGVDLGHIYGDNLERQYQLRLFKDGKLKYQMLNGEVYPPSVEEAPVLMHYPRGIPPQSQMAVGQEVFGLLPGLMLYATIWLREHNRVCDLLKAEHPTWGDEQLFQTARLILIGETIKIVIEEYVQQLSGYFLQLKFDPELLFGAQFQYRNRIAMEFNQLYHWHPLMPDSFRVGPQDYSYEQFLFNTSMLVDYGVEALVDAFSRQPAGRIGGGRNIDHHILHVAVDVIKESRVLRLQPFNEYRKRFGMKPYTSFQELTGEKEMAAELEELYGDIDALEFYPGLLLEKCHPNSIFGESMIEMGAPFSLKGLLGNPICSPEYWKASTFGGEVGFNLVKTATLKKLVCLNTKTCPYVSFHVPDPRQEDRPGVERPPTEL
Procedure: (see S1 File for experimental details). To evaluate the health-beneficial activity of the sea lamprey compounds, we included all isolates of sea lamprey extract for the evaluation of in vitro antiinflammatory and antioxidant activities. […] (S1 File). […] Antiinflammatory activities of arginine, tyrosine, tryptophan, asparagine and inosine were assayed at 50 μg/mL concentration.

[4] = target: T2, COX-1 (cyclooxygenase enzyme-1); experiment: biochemical; settings: read-out: Bioassay results / COX-1^a
[5] = target: T1, COX-2 (cyclooxygenase enzyme-2); experiment: biochemical; settings: read-out: Bioassay results / COX-2 ^a
[6] = target: T2, COX-1 (cyclooxygenase enzyme-1); experiment: in vitro COX-1 enzyme inhibitory assay, single concentration […]; format: biochemical; settings: read-out: Bioassay results / COX-1^a

Row | SMILES | % inhibition [1] | also measured
1 | CCCCCCCC/C=C\CCCCCCCC(=O)O[C@H]1CC[C@@]2(C)C(=CC[C@H]3[C@@H]4CC[C@H]([C@H](C)CCCC(C)C)[C@@]4(C)CC[C@@H]32)C1 [compound 9, Cholesteryl oleate^#] | 59.5 ± 0.7% | 
2 | CCCC(=O)C(=O)O [compound 43, α-Ketovaleric acid] | 15.0 ± 1.4% | 
3 | O=c1[nH]c(=O)c2nc[nH]c2[nH]1 [compound 37, Xanthine] | 22.0 ± 1.4% | 
4 | NC(=O)C[C@H](N)C(=O)O [compound 27, Asparagine] | 28.0 ± 1.4% | 
5 | C[C@@H](O)[C@H](N)C(=O)O [compound 26, Threonine] | 45.0 ± 1.4% | 
6 | CC/C=C\C/C=C\C/C=C\C/C=C\C/C=C\CCCC(=O)O[C@H]1CC[C@@]2(C)C(=CC[C@H]3[C@@H]4CC[C@H]([C@H](C)CCCC(C)C)[C@@]4(C)CC[C@@H]32)C1 [compound 10, Cholesteryl eicosapentaenoate] | 72.0 ± 1.4% | inhibition at 25 µg/mL [2]: 58.5 ± 1.7%; inhibition at 25 µg/mL [3]: 63.9 ± 2.1%
7 | O=c1[nH]cnc2c1ncn2[C@@H]1O[C@H](CO)[C@@H](O)[C@H]1O [compound 35, Inosine] | 16.5 ± 2.1% | 
8 | CN(CC(=O)O)C(=N)N [compound 34, Creatine] | 16.5 ± 0.7% | 
9 | COc1ccc2cc([C@H](C)C(=O)O)ccc2c1 [compound 3, Naproxen] |  | inhibition at 12 µg/mL [4]: 61.4%; inhibition at 12 µg/mL [5]: 60.5%
10 | CC(O)CC(=O)O (stereo not drawn) [compound 46, β-Hydroxybutyric acid] | 21.5 ± 0.7% | 
11 | O=c1[nH]cnc2nc[nH]c12 [compound 38, Hypoxanthine] | 24.5 ± 0.7% | 
12 | N[C@@H](Cc1c[nH]c2ccccc12)C(=O)O [compound 25, Tryptophan] | 57.5 ± 0.7% | 
13 | N[C@@H](Cc1ccccc1)C(=O)O [compound 22, Phenylalanine] | 44.0 ± 1.4% | 
14 | NCCCNCCCCNCCCN [compound 42, Spermine] | 16.5 ± 0.7% | 
15 | Nc1[nH]cnc2ncnc1-2 [compound 36, Adenine] | 19.5 ± 0.7% | 
16 | CC(C)C(=O)C(=O)O [compound 44, α-Ketoisovaleric acid] | 15.5 ± 0.7% | 
17 | CC(C)Cc1ccc(C(C)C(=O)O)cc1 (stereo not shown) [compound 4, Ibuprofen] |  | inhibition at 15 µg/mL [6]: 56.4%
18 | N=C(N)NCCC[C@H](N)C(=O)O [compound 17, Arginine] | 22.0 ± 1.4% | 

Row | SMILES | % inhibition [1] | also measured
19 | O=C(O)[C@@H]1CCCN1 [compound 31, Proline] | 17.0 ± 1.4% | 
20 | CC(C)[C@H](N)C(=O)O [compound 18, Valine] | 18.5 ± 0.7% | 
21 | CCC(=O)C(=O)O [compound 45, α-Ketobutyric acid] | 16.5 ± 0.7% | 
22 | O=C(O)C(O)Cc1ccccc1 (stereo not shown) [compound 48, 3-Phenyllactic acid] | 25.0 ± 1.4% | 
23 | N[C@@H](CO)C(=O)O [compound 32, Serine] | 29.0 ± 1.4% | 
24 | N[C@@H](Cc1ccc(O)cc1)C(=O)O [compound 20, Tyrosine] | 55.0 ± 1.4% | 
25 | CCCCC/C=C\C/C=C\C/C=C\C/C=C\CCCC(=O)O[C@H]1CC[C@@]2(C)C(=CC[C@H]3[C@@H]4CC[C@H]([C@H](C)CCCC(C)C)[C@@]4(C)CC[C@@H]32)C1 [compound 11, Cholesteryl arachidonate] | 82.0 ± 1.4% | inhibition at 25 µg/mL [2]: 67.9 ± 2.2%; inhibition at 25 µg/mL [3]: 74.7 ± 0.4%
26 | N[C@@H](CC(=O)O)C(=O)O [compound 33, Aspartic acid] | 36.5 ± 0.7% | 
27 | CCCCCCCCCCCCCCCC(=O)O[C@H]1CC[C@@]2(C)C(=CC[C@H]3[C@@H]4CC[C@H]([C@H](C)CCCC(C)C)[C@@]4(C)CC[C@@H]32)C1 [compound 8, Cholesteryl palmitate^#] | 38.0 ± 1.4% | 
28 | N[C@@H](CCC(=O)O)C(=O)O [compound 23, Glutamic acid] | 46.0 ± 1.4% | 
29 | NCC(=O)O [compound 29, Glycine] | 16.5 ± 0.7% | 
30 | N[C@@H](CS)C(=O)O [compound 30, Cysteine] | 47.0 ± 1.4% | 
31 | CC[C@H](C)[C@H](N)C(=O)O [compound 21, Isoleucine] | 17.5 ± 0.7% | 
32 | CC(=O)C(=O)O [compound 47, Pyruvic acid] | 23.5 ± 0.7% | 
33 | CCCCCCCC/C=C\CCCCCCCC(=O)O[C@H]1CC[C@@]2(C)C(=CC[C@H]3[C@@H]4CC[C@H]([C@H](C)CCCC(C)C)[C@@]4(C)CC[C@@H]32)C1 [Cholesteryl oleate^#] |  | inhibition at 25 µg/mL [2]: 31.1 ± 2.8%; inhibition at 25 µg/mL [3]: 45.9 ± 0.5%
34 | NCCCCN [compound 41, Putrescine] | 17.0 ± 1.4% | 
35 | CC(C)C[C@H](N)C(=O)O [compound 19, Leucine] | 19.5 ± 0.7% | 
36 | C[C@@H](O)[C@H](N)C(=O)O [Threonine] |  | inhibition at 25 µg/mL [2]: 5.82 ± 2.9%; inhibition at 25 µg/mL [3]: 19.4 ± 1.4%
